Among the data in patent publication US9227971B2, “Pyrazolo[1,5-a]pyrimidine compounds as mTOR inhibitors” (Merck Sharp & Dohme Corp., priority 2010, dated 2016) are IC50 values, retold here.

Experiment [1] relates to phosphorylated 4E-BP1 Thr37/46 (p4E-BP1 Thr37/46), mTORC1 activity, PC3 cells. Kind of experiment: mTOR target engagement assay, immunofluorescent cell-based, p4E-BP1 Thr37/46 readout (mTORC1 activity). Particulars: read-out: p4E-BP1 Thr37/46 IC50. In a few lines:
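Read-out is fluorescence intensity of immunostained p4E-BP1 Thr37/46 in fixed PC3 cells, fitted to a logistic curve for IC50 with DMSO-only wells as top. Cells had been exposed to serial compound dilutions for ninety minutes at 37° C in 5% FBS medium with 0.25% DMSO.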

The test system of experiment [2] is phosphorylated AKT Ser473 (pAKT S473), mTORC2 activity, PC3 cells. The experiment is described as follows: mTOR target engagement assay, immunofluorescent cell-based, pAKT S473 readout (mTORC2 activity). In a few lines:
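After blocking, cells were stained overnight at 4 °C with anti-pAKT S473 antibody, then a fluorescent secondary; inhibition was read as reduced fluorescence intensity.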

Setting [3] is: Homo sapiens, PC-3, Table 3-1, PC3 cells.
The mark [4] stands for this setting: Homo sapiens, PC-3, PC3 cells, compound treatment ninety minutes at 37° C.
The mark [5] stands for this setting: Homo sapiens, PC-3, Table 6-1, PC3 cells.
Setting [6] is: PC3 cells, compound treatment ninety minutes at 37° C.

Read-outs that look alike come from different tables or passages of the source. Some results are limits rather than exact numbers.

Take `CS(=O)(=O)c1c([C@]2(O)C[C@H]3CC[C@@H](C2)N3C(=O)c2nnc[nH]2)nc2c(-c3ccc(-c4ccccc4)nc3)cnn2c1N` [Compound 8.22, ((1R,3r,5S)-3-(7-amino-6-(methylsulfonyl)-3-(6-phenylpyridin-3-yl)pyrazolo[1,5-a]pyrimidin-5-yl)-3-hydroxy-8-azabicyclo[3.2.1]octan-8-yl)(4H-1,2,4-triazol-3-yl)methanone]: the IC50 is 1000 to 10000 nM in experiment [1] (Homo sapiens, PC-3, PC3 cells) and 100 to 1000 nM in experiment [2] (Homo sapiens, PC-3, PC3 cells).

For `CC(=O)NCC(=O)N1[C@@H]2CC[C@H]1C[C@H](c1nc3c(-c4ccc(-c5ccccc5)nc4)cnn3c(N)c1S(C)(=O)=O)C2` [Compound 3.203, N-(2-((1R,3s,5S)-3-(7-amino-6-(methylsulfonyl)-3-(6-phenylpyridin-3-yl)pyrazolo[1,5-a]pyrimidin-5-yl)-8-azabicyclo[3.2.1]octan-8-yl)-2-oxoethyl)acetamide], the IC50 in experiment [1] (setting [3]) and in experiment [2] (setting [3]) was 1 to 100 nM each time.

With `CC(=O)c1c([C@@H]2C[C@H]3CC[C@@H](C2)N3C(=O)CO)nc2c(-c3ccc(-c4cc(C)[nH]n4)nc3)cnn2c1N` [Compound 1.1.96, 1-((1R,3s,5S)-3-(6-acetyl-7-amino-3-(6-(5-methyl-1H-pyrazol-3-yl)pyridin-3-yl)pyrazolo[1,5-a]pyrimidin-5-yl)-8-azabicyclo[3.2.1]octan-8-yl)-2-hydroxyethanone], the IC50 in experiment [1] (setting [4]) and in experiment [2] (setting [4]) was over 10000 nM each time.

Regarding `Nc1cc([C@@H]2C[C@H]3CC[C@@H](C2)N3C(=O)c2nnc[nH]2)nc2c(-c3ccc(-c4ccccc4F)nc3)cnn12` [Compound 2.16, ((1R,3s,5S)-3-(7-amino-3-(6-(2-fluorophenyl)pyridin-3-yl)pyrazolo[1,5-a]pyrimidin-5-yl)-8-azabicyclo[3.2.1]octan-8-yl)(4H-1,2,4-triazol-3-yl)methanone], the IC50 in experiment [1] (setting [4]) and in experiment [2] (setting [4]) was 100 to 1000 nM each time.

On to `CONC(=O)N1C2CC[C@@H]1C[C@@H](c1nc3c(-c4ccc(-c5ccccc5)nc4)cnn3c(N)c1S(C)(=O)=O)C2` [Compound 3.171, (1R,3s,5S)-3-(7-amino-6-(methylsulfonyl)-3-(6-phenylpyridin-3-yl)pyrazolo[1,5-a]pyrimidin-5-yl)-N-methoxy-8-azabicyclo[3.2.1]octane-8-carboxamide], for which the IC50 in experiment [1] (setting [3]) and in experiment [2] (setting [3]) was 100 to 1000 nM throughout.

For the compound `CC(=O)c1c([C@@H]2C[C@H]3CC[C@@H](C2)N3C(=O)C(C)(CO)CO)nc2c(-c3ccc(-c4ccn(C)n4)nc3)cnn2c1N` [Compound 1.1.56, 1-((1R,3s,5S)-3-(6-acetyl-7-amino-3-(6-(1-methyl-1H-pyrazol-3-yl)pyridin-3-yl)pyrazolo[1,5-a]pyrimidin-5-yl)-8-azabicyclo[3.2.1]octan-8-yl)-3-hydroxy-2-(hydroxymethyl)-2-methylpropan-1-one], the IC50 in experiment [1] (setting [4]) and in experiment [2] (setting [4]) was 100 to 1000 nM in each case.

For the compound `Nc1c(C2CC2)c([C@@H]2C[C@H]3CC[C@@H](C2)N3C(=O)CO)nc2c(-c3ccc(-c4ncc[nH]4)nc3)cnn12` [Compound 6.1, 1-((1R,3s,5S)-3-(3-(6-(1H-imidazol-2-yl)pyridin-3-yl)-7-amino-6-cyclopropylpyrazolo [1,5-a]pyrimidin-5-yl)-8-azabicyclo[3.2.1]octan-8-yl)-2-hydroxyethanone], the IC50 in experiment [1] (setting [5]) and in experiment [2] (setting [5]) was 1 to 100 nM in each case.

In the case of `NC(=O)N1[C@@H]2CC[C@H]1C[C@H](c1nc3c(-c4ccc(-c5ncc[nH]5)nc4)cnn3c(N)c1C1CC1)C2` [Compound 6.31, (1R,3s,5S)-3-(3-(6-(1H-imidazol-2-yl)pyridin-3-yl)-7-amino-6-cyclopropylpyrazolo [1,5-a]pyrimidin-5-yl)-8-azabicyclo[3.2.1]octane-8-carboxamide], the IC50 in experiment [1] (setting [5]) and in experiment [2] (setting [5]) was 1 to 100 nM in each case.

For the compound `Nc1c(C2CC2)c([C@@H]2C[C@H]3CC[C@@H](C2)N3C(=O)CO)nc2c(-c3ccc(-c4cccc(F)c4)nc3)cnn12` [Compound 4.22, 1-((1R,3s,5S)-3-(7-amino-6-cyclopropyl-3-(6-(3-fluorophenyl)pyridin-3-yl)pyrazolo[1,5-a]pyrimidin-5-yl)-8-azabicyclo[3.2.1]octan-8-yl)-2-hydroxyethanone], the IC50 in experiment [1] (setting [4]) and in experiment [2] (setting [4]) was 100 to 1000 nM in each case.

As to `CS(=O)(=O)c1c([C@@H]2C[C@H]3CC[C@@H](C2)N3C(=O)c2nnc[nH]2)nc2c(-c3ccc(-c4nc5c(s4)CCC5)nc3)cnn2c1N` [Compound 3.193, ((1R,3s,5)S-3-(7-amino-3-(6-(5,6-dihydro-4H-cyclopenta[d]thiazol-2-yl)pyridin-3-yl)-6-(methylsulfonyl)pyrazolo[1,5-a]pyrimidin-5-yl)-8-azabicyclo[3.2.1]octan-8-yl)(4H-1,2,4-triazol-3-yl)methanone], the IC50 in experiment [1] (setting [3]) and in experiment [2] (setting [3]) was 100 to 1000 nM in each case.

As to `CS(=O)(=O)c1c([C@@H]2C[C@H]3CC[C@@H](C2)N3C(=O)c2nnc[nH]2)nc2c(-c3ccc(-c4ccc(OCF)cc4)nc3)cnn2c1N` [Compound 3.63, ((1R,3s,5S)-3-(7-amino-3-(6-(4-(fluoromethoxy)phenyl)pyridin-3-yl)-6-(methylsulfonyl)pyrazolo[1,5-a]pyrimidin-5-yl)-8-azabicyclo[3.2.1]octan-8-yl)(4H-1,2,4-triazol-3-yl)methanone], the IC50 in experiment [1] (Table 3-1, PC3 cells) was in the range of 1 to 100 nM; in experiment [2] (Table 3-1, PC3 cells), 1 to 100 nM.

In the case of `COc1ccc(-c2ccc(-c3cnn4c(N)c(Br)c([C@@H]5C[C@H]6CC[C@@H](C5)N6C(=O)c5nnc[nH]5)nc34)cn2)cc1F` [Compound 2.4, ((1R,3s,5S)-3-(7-amino-6-bromo-3-(6-(3-fluoro-4-methoxyphenyl)pyridin-3-yl)pyrazolo[1,5-a]pyrimidin-5-yl)-8-azabicyclo[3.2.1]octan-8-yl)(4H-1,2,4-triazol-3-yl)methanone], the IC50 in experiment [1] (setting [4]) and in experiment [2] (setting [4]) was 100 to 1000 nM each time.

For the compound `COc1ccc(-c2ccc(-c3cnn4c(N)c(S(C)(=O)=O)c([C@@H]5C[C@H]6CC[C@@H](C5)N6C(=O)c5nnc[nH]5)nc34)cn2)s1` [Compound 3.35, ((1R,3s,5S)-3-(7-amino-3-(6-(5-methoxythiophen-2-yl)pyridin-3-yl)-6-(methylsulfonyl)pyrazolo[1,5-a]pyrimidin-5-yl)-8-azabicyclo[3.2.1]octan-8-yl)(4H-1,2,4-triazol-3-yl)methanone], the IC50 in experiment [1] (setting [3]) and in experiment [2] (setting [3]) was 1 to 100 nM each time.

With `CC(=O)c1c([C@@H]2C[C@H]3CC[C@@H](C2)N3C(=O)c2nnc[nH]2)nc2c(-c3ccc4ccc(F)cc4c3)cnn2c1N` [Compound 1.1.38, 1-(5-((1R,3s,5S)-8-(4H-1,2,4-triazole-3-carbonyl)-8-azabicyclo[3.2.1]octan-3-yl)-7-amino-3-(7-fluoronaphthalen-2-yl)pyrazolo[1,5-a]pyrimidin-6-yl)ethanone], the IC50 lay in the range of 1 to 100 nM in experiment [1] (setting [6]) and 100 to 1000 nM in experiment [2] (setting [6]).

For the compound “((1R,3s,5S)-3-(7-amino-3-(6-(1-methyl-(D3)-1H-pyrazol-3-yl)pyridin-3-yl)-6-(methylsulfonyl)pyrazolo[1,5-a]pyrimidin-5-yl)-8-azabicyclo[3.2.1]octan-8-yl)(4H-1,2,4-triazol-3-yl)methanone [Compound 3.70]”, the IC50 in experiment [1] (Table 3-1, PC3 cells) fell in the range of 100 to 1000 nM; in experiment [2] (Table 3-1, PC3 cells), 100 to 1000 nM.
